The source of these data is patent US9839618B2, “Compositions and methods relating to proliferative diseases” (The Penn State Research Foundation, priority 2010, dated 2017).

In test [1] the test system is melanoma cell lines (UACC 903, 1205Lu). The test can be described thus: MTS assay, melanoma cell lines (cell line not given). As to conditions: Homo sapiens; Example 8. The test is classed as cell-based, human. The protocol:
The mechanistic basis of leelamine's activity to inhibit melanoma cell growth is determined by examining the effect of leelamine on 1) cell viability using the MTS assay; 2) proliferation using a BrdU incorporation assay; 3) apoptosis using an assay for caspase-3/7 activity; and 4) cell cycle analysis. The MTS assay as described in Sharma, A. et al., Clin Cancer Res, 2009, 15:1674-85; and Madhunapantula, S. V. et al., Mol Cancer Ther, 2008, 7:1297-308 is used to assay cell viability. Rates of proliferation and apoptosis are measured by seeding 5×10^3 cells in 96-well plates, followed by treatment with 0.62 to 10 μmol/L of leelamine for 24 hours. Proliferating and apoptotic cells are quantified using a colorimetric cell proliferation ELISA BrdU kit (Roche diagnostics, Indianapolis, Ind.) or Apo-ONE Homogenous caspase-3/7 assay kit (Promega, Madison, Wis.), respectively, as described in Sharma, A. et al., Clin Cancer Res, 2009, 15:1674-85; and Madhunapantula, S. V. et al., Mol Cancer Ther, 2008, 7:1297-308.
(§1) Dehydroabietylamine, its N-substituted derivatives and the corresponding dihydroabietylamine and its N-substituted derivatives are tested for their capability to inhibit cell growth of cancer cell lines, including melanoma (UACC 903, 1205Lu), breast (MCF-7), fibrosarcoma (HT-1080), colon (Caco-2), and prostate (PC-3) cancer cell lines. Viability and IC50 of normal human fibroblasts and cell lines from melanoma and other malignancies following treatment with all the agents are measured using the MTS assay (Promega, Madison, Wis.). Human fibroblast FF2441 cells, metastatic melanoma cell lines 1205 Lu and UACC 903 as well as cancer cell lines representing sarcoma (HT-1080), prostate (PC-3, LNCaP), breast (MCF-7) and lung (A-549) are maintained in DMEM (Invitrogen, Carlsbad, Calif.) supplemented with 10% FBS (Hyclone, Logan, Utah) in a 5% CO2 atmosphere, humidified 37° C. incubator. 5×10^3 cells per well in 100 μL of media are plated and grown in a 96-well plate for 48 to 72 h and treated with either DMSO vehicle control or 0.62 to 40 μmol/L for 24, 48 or 72 h. IC50 values for each compound in […] for respective cell lines are measured from three independent experiments using GraphPad Prism version 4.01 (GraphPad Software, La Jolla, Calif.). FIG. 52 is a graph showing IC50 values for leelamine and compounds 4a, 4b and 5a in treated fibroblasts (FF2441) compared to melanoma cells. Selectivity ratio here is defined as ratio of activity against fibroblasts compared to activity against melanoma cells. Leelamine is relatively selective with a ratio of >6 and >4 for UACC903 and 1205Lu melanoma cells. The selectivity ratio of compound 4a is ˜4 and ˜3 for UACC903 and 1205Lu and for compound 4b is ˜4 for both cell lines. The selectivity ratio of compound 5a is ˜4 for UACC903 and >2 for 1205Lu cells.
A general note: Tetrazolium assays rely on reduction of a dye to a coloured formazan, in cell work by metabolically active cells.

The test system of test [2] is UACC 903 metastatic melanoma cells. The test can be described thus: MTS assay viability IC50, UACC 903. The format is cell-based, human. The protocol: (§2) The efficacy of leelamine to kill other cancer types is measured and the IC50 for cell lines derived from carcinomas of breast, lung, prostate, connective tissue, pancreas and colon determined. The MTS assay as described in Sharma, A. et al., Clin Cancer Res, 2009, 15:1674-85; and Madhunapantula, S. V. et al., Mol Cancer Ther, 2008, 7:1297-308 is used to establish the IC50 at 24, 48 and 72 hours of leelamine treatment for normal human epidermal melanocytes (FOM103), normal skin fibroblast cells (FF2441), normal skin keratinocytes (HFK) and compared to melanocytic lesion cells from the radial-, vertical- and metastatic melanoma stages. 5×10^3 cells per well in 100 μL of media are plated and grown in a 96-well plate for 48 to 72 hours and treated with either DMSO vehicle control or 0.62 to 40 μmol/L of leelamine for 24, 48 or 72 hours. IC50 values for each compound in μmol/L for respective cell lines are measured from three independent experiments using GraphPad Prism version 4.01 (GraphPad Software, La Jolla, Calif.). Leelamine is found to be not toxic to normal cells and effective to kill melanoma cells as well as non-melanoma cancer cells as shown in Table 1 in FIG. 20. Leelamine is 3- to 4-fold more specific at killing metastatic melanoma than normal cells, supporting cancer therapeutic utility at concentrations<2 μmol/L.
(§3) 5×10^3 cells per well in 100 μL of media are plated and grown in a 96-well plate for 48 to 72 hours and treated with either DMSO vehicle control or 0.62 to 40 μmol/L of leelamine for 24, 48 or 72 hours. IC50 values for each compound in μmol/L for respective cell lines are measured from three independent experiments using GraphPad Prism version 4.01 (GraphPad Software, La Jolla, Calif.).
(§4) The IC50 and effect of liposomal preparations of leelamine on viability of normal human melanocytes, fibroblasts and melanoma cells UACC 903 and 1205 Lu are measured using the MTS assay (Promega, Madison, Wis.). Empty liposomes or liposomes containing abietic acid are used as controls. 5×10^3 cells per well in 100 μL of media are plated and grown in a 96-well plate for 48 or 72 hours for melanoma and normal cell lines, respectively. The cells are then treated with 0.62 to 40 μmol/L of liposome alone, a liposomal preparation of abietic acid, or with Nanolipolee-007 for 24 hours. IC50 values for each liposome in μmol/L for respective cell lines are measured from three independent experiments using GraphPad Prism version 4.01 (GraphPad Software, La Jolla, Calif.). Nanolipolee-007 retains the growth inhibitory activity of leelamine in killing melanoma cells in culture and specifically kills melanoma cells compared to normal cells, FIG. 24.
as §1, with “FIG. 52 is a graph showing IC50 values for leelamine and compounds 4a, 4b and 5a in treated fibroblasts (FF2441) compared to melanoma cells. Selectivity ratio here is defined as ratio of activity against fibroblasts compared to activity against melanoma cells. Leelamine is relatively selective with a ratio of >6 and >4 for UACC903 and 1205Lu melanoma cells. The selectivity ratio of compound 4a is ˜4 and ˜3 for UACC903 and 1205Lu and for compound 4b is ˜4 for both cell lines. The selectivity ratio of compound 5a is ˜4 for UACC903 and >2 for 1205Lu cells.” left out

Test [3] concerns 1205 Lu metastatic melanoma cells. The test can be described thus: MTS assay viability IC50, 1205 Lu. The format is cell-based, human. The protocol: as §2, §3, §4
as §1, with “FIG. 52 is a graph showing IC50 values for leelamine and compounds 4a, 4b and 5a in treated fibroblasts (FF2441) compared to melanoma cells. Selectivity ratio here is defined as ratio of activity against fibroblasts compared to activity against melanoma cells. Leelamine is relatively selective with a ratio of >6 and >4 for UACC903 and 1205Lu melanoma cells. The selectivity ratio of compound 4a is ˜4 and ˜3 for UACC903 and 1205Lu and for compound 4b is ˜4 for both cell lines. The selectivity ratio of compound 5a is ˜4 for UACC903 and >2 for 1205Lu cells.” left out

In test [4] the test system is FF2441 normal human fibroblasts. The test can be described thus: MTS assay viability IC50, normal fibroblasts. The settings on record: read-out: IC50 Normal fibroblast FF2441. The test is classed as cell-based. The protocol: as §2
5×10^3 cells per well in 100 μL of media are plated and grown in a 96-well plate for 48 to 72 hours and treated with either DMSO vehicle control or 0.62 to 40 μmol/L of leelamine for 24, 48 or 72 hours. IC50 values for each compound in μmol/L for respective cell lines are measured from three independent experiments using GraphPad Prism version 4.01 (GraphPad Software, La Jolla, Calif.). […]
as §1

Setting [5] is: Table 4, read-out: IC50 Metastatic Melanoma Cell line UACC903.
Setting [6] is: Table 4, read-out: IC50 Metastatic Melanoma Cell line 1205Lu.
The mark [7] stands for this setting: Homo sapiens, UACC-903, Table 6, read-out: IC50 Metastatic melanoma UACC 903.
Where [8] appears, read: Homo sapiens, UACC-903, Table 7, read-out: IC50 (UACC903).
Setting [9] is: Homo sapiens, UACC-903, Example 8, read-out: IC50 UACC 903.
Setting [10] is: Homo sapiens, UACC-903, Table 4, read-out: IC50 Metastatic Melanoma Cell line UACC903.
The mark [11] stands for this setting: Homo sapiens, 1205Lu, Table 4, read-out: IC50 Metastatic Melanoma Cell line 1205Lu.
Where [12] appears, read: Homo sapiens, 1205Lu, Table 6, read-out: IC50 Metastatic melanoma 1205 Lu.
[13] abbreviates: Homo sapiens, 1205Lu, Example 8, read-out: IC50 1205Lu.

Read-outs that look alike come from different tables or passages of the source. Bounds are passed on as bounds.

Consider `CC(C)c1ccc2c(c1)CCC1[C@](C)(CNC(c3ccccc3)(c3ccccc3)c3ccccc3)CCC[C@]21C` (stereo partly drawn) [Compound 5e, {[(1R,4aS)-1,4a-dimethyl-7-(propan-2-yl)-1,2,3,4,4a,9,10,10a-octahydrophenanthren-1-yl]methyl}(triphenylmethyl)amine], for which the half-maximal inhibitory concentration (IC50) (in general, the midpoint of a concentration-inhibition curve) in test [1] is more than 100 µM.

On to `CCOC[C@]1(C)CCC[C@]2(C)C3CCC(C(C)C)C=C3C=CC12` (stereo partly drawn) [Compound 2a], for which the IC50 in test [2] (setting [5]), in test [3] (setting [6]) and in test [4] (Table 4) was more than 100 µM in each case.

For `CC(C)c1ccc2c(c1)CCC1[C@](C)(CNC(=O)c3ccccc3)CCC[C@]21C` (stereo partly drawn) [Compound 5c, N-(((1R,4aS)-7-isopropyl-1,4a-dimethyl-1,2,3,4,4a,9,10,10a-octahydrophenanthren-1-yl)methyl)benzamide], the IC50 in test [2] (setting [7]), in test [2] (setting [8]) and in test [1] was more than 100 µM each time.

As to `CC(C)C1=CC2=CCC3[C@](C)(CCC[C@@]3(C)C(N)=O)C2CC1` (stereo partly drawn) [Compound 3a, (1R,4aR)-1,4a-dimethyl-7-(propan-2-yl)-1,2,3,4,4a,4b,5,6,10,10a-decahydrophenanthrene-1-carboxamide], the IC50 in test [2] (setting [9]) was 70 µM; in test [2] (setting [10]), 70.1 ± 1.8 µM; in test [2] (setting [7]) it was 70.1 ± 1.8 µM; in test [2] (setting [8]) it was 70.1 µM; in test [3] (setting [11]), 81.1 ± 2.09 µM; in test [3] (setting [12]), 81.1 ± 2.09 µM. For the same compound, the IC50 in test [4] (Table 6) is more than 100 µM.

Consider `CC(C)C1C=C2C=CC3[C@](C)(CO)CCC[C@]3(C)C2CC1` (stereo partly drawn) [Compound 2b, [(1R,4aR)-1,4a-dimethyl-7-(propan-2-yl)-1,2,3,4,4a,4b,5,6,7,100a-decahydrophenanthren-1-yl]methanol], for which the concentration for half-maximal inhibition (IC50) worked out at 53 µM in test [2] (Example 8, read-out: IC50 UACC 903); 52.6 ± 1.34 µM in test [2] (setting [5]); 52.6 ± 1.34 µM in test [2] (Table 6, read-out: IC50 Metastatic melanoma UACC 903); 52.6 µM in test [2] (Table 7, read-out: IC50 (UACC903)); 60 µM in test [3] (Example 8, read-out: IC50 1205Lu); 60.4 ± 1.61 µM in test [3] (setting [6]). In addition, the half-maximal inhibitory concentration (IC50) is 60.4 ± 1.61 µM in test [3] (Table 6, read-out: IC50 Metastatic melanoma 1205 Lu); more than 100 µM in test [4] (Table 4); more than 100 µM in test [4] (Table 6).

`CCN(CC)C[C@]1(C)CCC[C@]2(C)C3CCC(C(C)C)=CC3=CCC12` (stereo partly drawn) [Compound 4c, {[(1R,4aR)-1,4a-dimethyl-7-(propan-2-yl)-1,2,3,4,4a,4b,5,6,10,10a-decahydrophenanthren-1-yl]methyl}diethylamine]: the IC50 amounted to 24.4 µM in test [2] (setting [9]); 24.4 ± 1.33 µM in test [2] (setting [10]); 24.4 ± 1.33 µM in test [2] (setting [7]); 24.4 µM in test [2] (setting [8]); 24.3 µM in test [3] (setting [13]); 24.3 ± 2.5 µM in test [3] (setting [11]). Besides, the IC50 in test [3] (setting [12]) is 24.3 ± 2.5 µM; in test [4] (Table 6), more than 100 µM.

Consider `CC(=O)NC[C@]1(C)CCC[C@]2(C)c3ccc(C(C)C)cc3CCC12` (stereo partly drawn) [Compound 5b, N-{[(1R,4aS)-1,4a-dimethyl-7-(propan-2-yl)-1,2,3,4,4a,9,10,10a-octahydrophenanthren-1-yl]methyl}acetamide], for which the IC50 in test [2] (setting [9]) is 89 µM; in test [2] (setting [7]), 89.4 ± 3.31 µM; in test [2] (setting [8]), 89.4 µM; in test [3] (setting [13]), more than 50 µM; in test [3] (setting [11]), more than 50 µM; in test [4] (Table 6), more than 100 µM.

On to `CC(C)c1ccc2c(c1)CCC1[C@](C)(CNCc3ccccc3)CCC[C@]21C` (stereo partly drawn) [Compound 5d, N-benzyl-1-((1R,4aS)-7-isopropyl-1,4a-dimethyl-1,2,3,4,4a,9,10,10a-octahydrophenanthren-1-yl)methanamine], for which the IC50 in test [2] (setting [10]) was determined as 6.05 ± 1.32 µM; in test [2] (setting [7]), 6.05 µM; in test [2] (setting [8]) it was 6.05 µM; in test [1], 6 µM.

`CCN(CC)C(=O)[C@]1(C)CCC[C@]2(C)C3CCC(C(C)C)=CC3=CCC21` (stereo partly drawn) [Compound 3c, (1R,4aR)-N,N-diethyl-1,4a-dimethyl-7-(propan-2-yl)-1,2,3,4,4a,4b,5,6,10,10a-decahydrophenanthrene-1-carboxamide] registered a half-inhibitory concentration (IC50) in test [1] of more than 100 µM.

Turning to `CC(C)c1ccc2c(c1)CCC1[C@](C)(CNC(=O)C(Br)(Br)Br)CCC[C@]21C` (stereo partly drawn) [GPR-5L, N-{[(1R,4aS)-1,4a-dimethyl-7-(propan-2-yl)-1,2,3,4,4a,9,10,10a-octahydrophenanthren-1-yl]methyl}-2,2,2-tribromoacetamide], the values for the IC50 in test [2] (setting [7]), in test [2] (setting [8]) and in test [3] (setting [12]) were 1.01 ± 0.08 µM, 1.01 µM and 1.88 ± 0.21 µM, respectively.
